# According to patent publication US7265124B2, “Cristalline and amorphous form of a triazolo (4,5-D) pyridimine compound” (AstraZeneca AB, priority 2000, dated 2007):
# Legend:
# Conditions in all cases: qualitative statement, no test described
# [1] = metabolic stability (stated in words only); format: in vitro ADME
# [2] = bioavailability (stated in words only); format: in vivo
# [3] = molecular target: P2T (P2YADP or P2TAC) receptor (Homo sapiens, UniProt Q9H244); assay: P2T receptor antagonism (potency stated in words only)
# P2T (P2YADP or P2TAC) receptor, sequence (Q9H244 whole entry): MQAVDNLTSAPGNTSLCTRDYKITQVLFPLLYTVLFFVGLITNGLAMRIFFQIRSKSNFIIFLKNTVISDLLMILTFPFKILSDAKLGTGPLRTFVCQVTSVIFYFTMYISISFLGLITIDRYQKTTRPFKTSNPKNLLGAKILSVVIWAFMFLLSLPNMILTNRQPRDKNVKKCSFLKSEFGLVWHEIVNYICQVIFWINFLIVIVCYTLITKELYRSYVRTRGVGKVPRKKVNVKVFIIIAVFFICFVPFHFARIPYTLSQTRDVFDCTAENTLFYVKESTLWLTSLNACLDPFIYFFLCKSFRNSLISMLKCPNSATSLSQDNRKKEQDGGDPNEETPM
structure (smiles),measurement,setting,value
"CCCSc1nc(N[C@@H]2C[C@H]2c2ccc(F)c(F)c2)c2nnn([C@@H]3C[C@H](OCCO)[C@@H](O)[C@H]3O)c2n1 (relative stereo) [compound of formula (I), {1S-[1α, 2α, 3β(1S*,2R*),5β]}-3-(7-{[2-3,4-difluorophenyl)cyclopropyl]amino}-5-(propylthio)-3H-1,2,3-triazolo[4,5-d]pyrimidin-3-yl)-5-(2-hydroxyethoxy)cyclopentane-1,2-diol]",metabolic stability,[1],surprisingly high
same,bioavailability,[2],surprisingly high
same,potency as a P2T (P2YADP or P2TAC) antagonist,[3],high potency
